Reference: PMC10893631, “Receptor-based pharmacophore modeling, molecular docking, synthesis and biological evaluation of novel VEGFR-2, FGFR-1, and BRAF multi-kinase inhibitors” (BMC Chemistry, 2024)

How the values were obtained:
Assay in all cases: NCI SRB growth inhibition (single dose 10 µM / five-dose)
Assay type in all cases: cell-based, human
A498 = settings: Homo sapiens; A498 (Renal cancer), 10 µM; read-out: GI%
Procedure, shortened: (§1)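 Single-dose screen output reported as mean graph; selected compounds then run at five concentrations. Cells pre-grown 24 h before drug addition, fixed with TCA, and quantified by SRB dye binding.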

ACHN = settings: Homo sapiens; ACHN (Renal cancer), 10 µM; read-out: GI%
Procedure, shortened: as §1

COLO 205 = settings: Homo sapiens; COLO 205 (Colon cancer), 10 µM; read-out: GI%
Procedure, shortened: as §1

HCC-2998 = settings: Homo sapiens; HCC-2998 (Colon cancer), 10 µM; read-out: GI%
Procedure, shortened: as §1

HCT-15 = settings: Homo sapiens; HCT-15 (Colon cancer), 10 µM; read-out: GI%
Procedure, shortened: as §1

HOP-62 = settings: Homo sapiens; HOP-62 (Non-small cell lung cancer), 10 µM; read-out: GI%
Procedure, shortened: as §1

HOP-92 = settings: Homo sapiens; HOP-92 (Non-small cell lung cancer), 10 µM; read-out: GI%
Procedure, shortened: as §1

HT29 = settings: Homo sapiens, HT-29; HT29 (Colon cancer), 10 µM; read-out: GI%
Procedure, shortened: as §1

IGROV1 = settings: Homo sapiens, IGROV-1; IGROV1 (Ovarian cancer), 10 µM; read-out: GI%
Procedure, shortened: as §1

LOX IMVI = settings: Homo sapiens; LOX IMVI (Melanoma), 10 µM; read-out: GI%
Procedure, shortened: as §1

MALME-3 M = settings: Homo sapiens; MALME-3 M (Melanoma), 10 µM; read-out: GI%
Procedure, shortened: as §1

MOLT-4 = settings: Homo sapiens; MOLT-4 (Leukemia), 10 µM; read-out: GI%
Procedure, shortened: as §1

NCI-H226 = settings: Homo sapiens; NCI-H226 (Non-small cell lung cancer), 10 µM; read-out: GI%
Procedure, shortened: as §1

NCI-H23 = settings: Homo sapiens; NCI-H23 (Non-small cell lung cancer), 10 µM; read-out: GI%
Procedure, shortened: as §1

NCI-H322M = settings: Homo sapiens; NCI-H322M (Non-small cell lung cancer), 10 µM; read-out: GI%
Procedure, shortened: as §1

NCI/ADR-RES = settings: Homo sapiens; NCI/ADR-RES (Ovarian cancer), 10 µM; read-out: GI%
Procedure, shortened: as §1

OVCAR-3 = settings: Homo sapiens; OVCAR-3 (Ovarian cancer), 10 µM; read-out: GI%
Procedure, shortened: as §1

OVCAR-4 = settings: Homo sapiens; OVCAR-4 (Ovarian cancer), 10 µM; read-out: GI%
Procedure, shortened: as §1

OVCAR-5 = settings: Homo sapiens; OVCAR-5 (Ovarian cancer), 10 µM; read-out: GI%
Procedure, shortened: as §1

RPMI-8226 = settings: Homo sapiens; RPMI-8226 (Leukemia), 10 µM; read-out: GI%
Procedure, shortened: as §1

SK-MEL-2 = settings: Homo sapiens; SK-MEL-2 (Melanoma), 10 µM; read-out: GI%
Procedure, shortened: as §1

SK-MEL-5 = settings: Homo sapiens; SK-MEL-5 (Melanoma), 10 µM; read-out: GI%
Procedure, shortened: as §1

SNB-19 = settings: Homo sapiens; SNB-19 (CNS cancer), 10 µM; read-out: GI%
Procedure, shortened: as §1

SNB-75 = settings: Homo sapiens; SNB-75 (CNS cancer), 10 µM; read-out: GI%
Procedure, shortened: as §1

T-47D = settings: Homo sapiens, T47D; T-47D (Breast cancer), 10 µM; read-out: GI%
Procedure, shortened: as §1

UACC-257 = settings: Homo sapiens; UACC-257 (Melanoma), 10 µM; read-out: GI%
Procedure, shortened: as §1

| SMILES | inhibition at 10 µM (A498) [%] | inhibition at 10 µM (ACHN) [%] | inhibition at 10 µM (COLO 205) [%] | inhibition at 10 µM (HCC-2998) [%] | inhibition at 10 µM (HCT-15) [%] | inhibition at 10 µM (HOP-62) [%] | inhibition at 10 µM (HOP-92) [%] | inhibition at 10 µM (HT29) [%] | inhibition at 10 µM (IGROV1) [%] | inhibition at 10 µM (LOX IMVI) [%] | inhibition at 10 µM (MALME-3 M) [%] | inhibition at 10 µM (MOLT-4) [%] | inhibition at 10 µM (NCI-H226) [%] | inhibition at 10 µM (NCI-H23) [%] | inhibition at 10 µM (NCI-H322M) [%] | inhibition at 10 µM (NCI/ADR-RES) [%] | inhibition at 10 µM (OVCAR-3) [%] | inhibition at 10 µM (OVCAR-4) [%] | inhibition at 10 µM (OVCAR-5) [%] | inhibition at 10 µM (RPMI-8226) [%] | other results |
| --- | --- | --- | --- | --- | --- | --- | --- | --- | --- | --- | --- | --- | --- | --- | --- | --- | --- | --- | --- | --- | --- |
| COc1ccc(-c2nc3cc(C(=O)NN=Cc4ccc(OC)c(O)c4)ccc3[nH]2)cc1 [8l, N'-(3-Hydroxy-4-methoxybenzylidene)-2-(4-methoxyphenyl)-1H-benzo[d]imidazole-5-carbohydrazide] | < 5 | < 5 | 76.8 | 15 | < 5 | 55.5 | 17.4 | > 100 | 20.3 | 37.9 | 87.6 | 78.6 | 24.5 | 24 | 24 | < 5 | 37.6 | 9.88 | < 5 | 32.4 | inhibition at 10 µM (SK-MEL-2): 25.8%; inhibition at 10 µM (SK-MEL-5): 55.3%; inhibition at 10 µM (SNB-19): 16.1%; inhibition at 10 µM (SNB-75): 25.8%; inhibition at 10 µM (T-47D): 52.5%; inhibition at 10 µM (UACC-257): 52.9% |
| COc1ccc(-c2nc3cc(C(=O)NN=Cc4cc(OC)ccc4OC)ccc3[nH]2)cc1 [8m, N'-(2,5-Dimethoxybenzylidene)-2-(4-methoxyphenyl)-1H-benzo[d]imidazole-5-carbohydrazide] | < 5 | 8.59 | < 5 | < 5 | 13.7 | 19.4 | < 5 | 25.4 | < 5 | 18.8 | 18.3 | 35.8 | < 5 | < 5 | < 5 | < 5 | < 5 | 8.31 | < 5 | 76.8 | inhibition at 10 µM (SK-MEL-2): 11.1%; inhibition at 10 µM (SK-MEL-5): 22.3%; inhibition at 10 µM (SNB-19): < 5%; inhibition at 10 µM (SNB-75): < 5%; inhibition at 10 µM (T-47D): 40.6%; inhibition at 10 µM (UACC-257): 14.3% |
